Entries after “also recorded” stand apart in the source; their conditions may differ.
Tests used:
Format in all cases: in vivo
[1] = biological target: T1, CGRP receptor (Mus musculus, UniProt Q9R1W5+Q9WTJ5); experiment: Body size / weight gain after intranasal BIBN-4096 in NEHI mouse model; details: analyzed at P22
T1 construct: from tissue; host or cells: Live mouse pups on a B6 background (Nkx2-1 R191L NEHI model and control genotypes); lung, intranasal dosing
Description: (§1) BIBN-4096 (Fisher Scientific #45-611-0) was dissolved in 100% DMSO (Sigma-Aldrich D2650) and further diluted to working solution with saline before use. 10 ul of 0.3 mg/ml BIBN-4096 was intranasally administrated to pups at P10, P12, P14, P16 and P18.

[2] = biological target: T1, CGRP receptor; experiment: Lung wet-to-dry ratio (pulmonary edema) after intranasal BIBN-4096 in NEHI mouse model; details: Nkx2-1^L/L mutants; intranasal 10 ul of 0.3 mg/ml at P10, P12, P14, P16, P18; analyzed at P22; vs vehicle DMSO
Description: Each lung was removed from sacrificed mouse right after euthanasia. Excessive blood was removed by kimwipe and wet weight mw was measured right after dissection. The lung was then placed on the foil at 70° C. for 24 hours. Dry weight […] was then measured by reweighing the dried lung. Wet-to-dry ratio was calculated as: W/D ratio=mw/md.
as §1

[3] = biological target: T1, CGRP receptor; experiment: Oxygen saturation (SpO2) by pulse-ox after intranasal BIBN-4096 in NEHI mouse model; details: Nkx2-1^L/L mutants; intranasal 10 ul of 0.3 mg/ml at P10-P18; analyzed at P22; vs vehicle DMSO
Description: Pups were shaved and […] by isoflurane while pulse-ox (MouseOxPlus, Starr Life Sciences) was performing. The SpO2 reads were recorded after 5 minutes of stable measurement.
as §1

T1 sequence (Q9R1W5 23-463): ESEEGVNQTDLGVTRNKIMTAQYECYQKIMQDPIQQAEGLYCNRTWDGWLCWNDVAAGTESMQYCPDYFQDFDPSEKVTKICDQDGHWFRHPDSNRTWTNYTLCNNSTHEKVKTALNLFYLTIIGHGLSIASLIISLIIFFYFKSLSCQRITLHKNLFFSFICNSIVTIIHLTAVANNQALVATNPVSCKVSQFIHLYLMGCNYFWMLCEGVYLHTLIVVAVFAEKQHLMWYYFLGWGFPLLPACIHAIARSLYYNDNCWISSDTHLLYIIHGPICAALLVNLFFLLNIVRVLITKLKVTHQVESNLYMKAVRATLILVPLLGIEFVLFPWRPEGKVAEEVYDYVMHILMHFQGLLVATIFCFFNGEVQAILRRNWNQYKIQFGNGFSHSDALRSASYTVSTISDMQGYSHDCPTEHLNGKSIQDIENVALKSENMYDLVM
T1 sequence (Q9WTJ5 27-148): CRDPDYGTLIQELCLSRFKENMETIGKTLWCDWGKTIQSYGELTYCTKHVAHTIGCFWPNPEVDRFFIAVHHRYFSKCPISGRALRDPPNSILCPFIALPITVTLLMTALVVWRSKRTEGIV

For `NCCCC[C@H](NC(=O)[C@@H](Cc1cc(Br)c(O)c(Br)c1)NC(=O)N1CCC(N2Cc3ccccc3NC2=O)CC1)C(=O)N1CCN(c2ccncc2)CC1` [BIBN-4096, N-((1R)-2-(((1S)-5-amino-1-((4-(pyridin-4-yl)piperazin-1-yl)carbonyl)pentyl)amino)-1-(3,5-dibromo-4-hydroxybenzyl)-2-oxoethyl)-4-(2-oxo-1,4-dihydroquinazolin-3 (2H)-yl) piperidine-1-carboxamide], the “Body size / weight gain” value ([1]; Nkx2-1^L/L mutants, intranasal 10 ul of 0.3 mg/ml at P10-P18, vs vehicle DMSO) was “clear reversal; also recorded: improved size”, the “Effects of treatment in control genotype groups” value ([1]; control genotype groups, intranasal P10-P18, vs vehicle DMSO (FIG. 9B)) was “did not lead to detectable effects” and the “Lung wet-to-dry ratio (pulmonary edema)” value [2] was “clear reversal; also recorded: attenuation of fluid in lung”. The “Oxygen saturation measured by pulse-ox (gas-exchange)” value [3] was “clear reversal; also recorded: improved gas-exchange efficiency”.

Reference: US12521389B2, “Therapeutic approach to lung disease” (The Regents of the University of California, priority 2019, dated 2026)
